Assays:
human TRPA1 = test: Ratiometric calcium imaging of NAPQI activation of TRPA1 in HEK 293 cells; format: cell-based; conditions: 7 μM NAPQI; for inhibition of the activation of the receptor (TRPA1) by NAPQI: 4 μM test substance, HEK 293 cells expressing human TRPA1, FIG. 1
Experimental: The calcium ion channel TRPA 1 is activated by NAPQI. This activation may be determined by ratiometric calcium imaging.
HEK 293 cells expressing human TRPA1 were pre-incubated with 7 μM NAPQI and the calcium fluorophore FURA II. One experiment was run in the presence of 4 μM NBMI and the another was run in the presence of 4 μM NAC.

[1] = system: paracetamol intoxicated mice; test: Paracetamol intoxicated mice study, i.p. paracetamol (ALT, AST); format: in vivo; conditions: paracetamol 300 mg/kg I.P., 24 hours
Experimental: In normal mice, the liver enzyme alanine transaminase (ALT) level is about 36-40 unit/L and the liver enzyme aspartate transaminase (AST) level is about 90 unit/L. […] The ratio of AST: ALT can also be relevant in humans; a value at or below 1 is considered to indicate toxicity. […] 30 minutes later, two (2) of the mice were administered vehicle only, two (2) received NAC 1200 mg/kg per os, two (2) received NBMI 200 mg/kg per os. The mice were sacrificed at 24 hours.

[2] = Clinical proof of concept study: paracetamol and cys-paracetamol in venous blood after 1 g paracetamol with or without NBMI; format: in vivo, human; conditions: venous blood over eight hours
Experimental: A pilot clinical study was performed at the Lund Hospital Clinical Trial Unit, on three occasions.

[3] = system: paracetamol intoxicated mice; test: Paracetamol intoxicated mice study, oral paracetamol (ALT); format: in vivo
Experimental: (§1) The ratio of AST: ALT can also be relevant in humans; a value at or below 1 is considered to indicate toxicity.
20 minutes later, half of the mice (3) were administered vehicle (0.5% (w/v) carboxymethylcellulose 300-600 centipoises in water) only, half of the mice (3) received NBMI 100 mg/kg per os (NBMI dissolved in CMC as described below). […]

[4] = system: paracetamol intoxicated mice; test: NBMI versus vehicle in paracetamol intoxicated mice, i.p. paracetamol, synchronised oral dosing (AST, ALT); format: in vivo
Experimental: as §1
Mice were sacrificed at 24 hours after administration, following which levels of liver enzymes AST and ALT were measured.
In the NBMI-treated group, eleven (11) mice were treated.

[5] = Clinical trials of NBMI, adverse events; format: in vivo; conditions: 4.5-9 mg/kg dose in humans
[6] = NAC 1200 mg/kg per os 30 minutes later
[7] = NBMI 200 mg/kg per os 30 minutes later
[8] = paracetamol 200 mg/kg i.p., synchronous oral NBMI 680 mg/kg in CMC, 24 hours

Structure (SMILES) | inhibition of the activation of the receptor (TRPA1) by NAPQI (human TRPA1) | AST level [1, 6] [unit/L] | average ALT level [1, 6] [unit/L] | receptor activation (human TRPA1; in the absence of NBMI or NAC) | decrease of area under the curve (AUC) of cys-paracetamol ([2]; 600 mg NBMI one hour prior to 1 g paracetamol) [%] | decrease of area under the curve (AUC) of cys-paracetamol ([2]; 1,200 mg NBMI two hours before 1 g paracetamol) [%] | median ALT level ([3]; paracetamol 700 mg/kg per os, NBMI 100 mg/kg per os 20 minutes later, sacrificed at 17 hours) [unit/L] | median ALT lower than the median of the intoxicated animals ([3]; po, 100 mg/kg) | AST level (printed as ALT level) [1, 7] [unit/L] | average ALT level [1, 7] [unit/L] | AST/ALT ratio, average ([4]; 680 mg/kg, 24 h) | ALT, average [4, 8] [units/L] | AST, average [4, 8] [units/L] | drug related adverse events [5]
CC(=O)N[C@@H](CS)C(=O)O [NAC, N-acetyl cysteine, reference compound] | only partial inhibition | 180 | 55 | – | – | – | – | – | – | – | – | – | – | –
CC(=O)N=C1C=CC(=O)C=C1 [NAPQI, N-acetyl-p-benzoquinone imine] | – | – | – | about 55% | – | – | – | – | – | – | – | – | – | –
O=C(NCCS)c1cccc(C(=O)NCCS)c1 [NBMI, N,N-bis-2-mercaptoethyl isophthalamide] | almost completely inhibited | – | – | – | 23 | 73 | 624 | about 95% | 600 | 984 | 2.1 | 952 | 753 | no drug related adverse events

Source: patent publication US20250325503A1, “NEW USE OF N,N-BIS-2-MERCAPTOETHYL ISOPHTHALAMIDE” (EMERAMED LIMITED, priority 2016, published 2025)
